Values quoted from earlier work, collected in US10760135B2, “Methods for predicting pancreatic cancer treatment response” (priority 2016, dated 2020).
Where a name gives a salt, the structure may show the parent alone.

Tested on: advanced PDAC
Conditions: first-line treatment, patients with advanced PDAC

Nc1ccn([C@@H]2O[C@H](CO)[C@@H](O)C2(F)F)c(=O)n1 [Gemcitabine, 1-(2′-Deoxy-2′,2′-difluoro-[beta]-D-ribofuranosyl)-4-aminopyrimidin-2-one hydrochloride]
5-year survival rate: 2%
